Measurements from patent publication US20250281439A1, “USE OF L-ASPARTIC ACID BETA-HYDROXAMATE (L-ABH) IN PREPARATION OF DRUG FOR DIABETIC RETINOPATHY (DR) OR RETINOPATHY OF PREMATURITY (ROP)” (Wenzhou Medical University, priority 2024, published 2025).
“Also recorded” adds a separate entry of the source.

Legend:
[1] = system: db/db mice; experiment: OCT experiment (circular and linear scan; RNFL and total retinal thickness); type: in vivo; conditions: gavage 20 mg/kg/day, 18 weeks, vs db/db+water
Method: (§1) The 3-month-old db/db mice were randomly divided into two groups and subjected to intragastric gavage experiments: • group 1: gavage of water (denoted as db/db+water, 0.06 mL/10 g, 7 mice in total); • group 2: gavage of the L-ABH (denoted as db/db+L-ABH, 20 mg/kg/day, 10 mice in total).
(§2) Each group was gavaged 1 time per day according to the dosage for 18 weeks.
(§3) The 3-month-old wild-type mice were gavaged in the same manner as the group 1 (denoted as WT+water, 0.06 mL/10 g, 6 mice in total).
(2) After the gavage, an OCT experiment was conducted.
After the mice were anesthetized, tropicamide eye drops were used to dilate pupils, and after the mice entered deep anesthesia, ofloxacin was used to cover an ocular surface. The mice were placed on a mouse holder, their body position and the position knob were adjusted such that the lens was directly facing a center of mouse pupil. The position was fine-tuned from far to near such that an optic disc was located in a center of fundus image, and a focus was adjusted to make the image clear. A linear scan was conducted, where a linear scan position was moved to the vicinity of the optic disc, parameters and position were fine-tuned such that an OCT image passed through the optic disc and the optic disc was located in the middle, thus obtaining a cross-section of the retina from a temporal side to a nasal side. […]

[2] = system: db/db mice; experiment: Visual electrophysiological examination (dark and light adaptation) after 18 weeks of gavage; type: in vivo; conditions: gavage 20 mg/kg/day, 1 time per day, vs db/db+water
Method: as §1, §2, §3
(1) After the gavage, visual electrophysiological examinations were conducted on the mice in each group.
In FIGS. 2A-2H, (dark adapted 0.01, dark adapted 3.0, dark adapted 10.0 and dark adapted 3.0 oscillatory potentials) show 4 tests under visual electrophysiological dark adaptation. […] In FIGS. 3A-3D, (light adapted 3.0, and light adapted 30 Hz flicker) show 2 tests after visual electrophysiological light adaptation.

[3] = Toxicity and tolerability of L-ABH on long-term oral administration; type: in vivo; conditions: no test described
Text: L-aspartic acid β-hydroxamate (L-ABH) is a reversible serine racemase (SR) inhibitor. […] However, there is no clear report on whether the L-ABH could be used for retinal neuroprotection as well as prevention and treatment of retinopathy.

[4] = system: db/db mice; experiment: Retinal digest preparation, PAS staining (endothelial cells, pericytes, acellular capillaries); type: in vivo; conditions: gavage 20 mg/kg/day, 18 weeks, vs db/db+water
Method: as §1, §2, §3
(4) After the gavage, the retinal digest preparation stretched preparation-PAS staining experiment was conducted.
After the mice were euthanized, eyeballs of the mice were removed and fixated with 4% PFA for 48 h, the retinas of the mice were separated and rinsed in ddH2O on a shaker at room temperature overnight, a fixative was removed, and the retinas were cut in half. The retinas were placed in 3% trypsin (prepared in 0.2 M Tris buffer, pH=7.4) and digested at 37° C. for 1 h. […] The nuclei were washed with running water, dehydrated routinely, transparentized with xylene, sealed with neutral gum, and then 6 to 8 fields of view were randomly selected for counting and observation under a microscope, and the number of pericytes and endothelial cells was calculated.

[5] = oral 20 mg/kg/d for three months (patent ZL 202110755406.0); 20 mg/kg/day; cited from earlier work
[6] = system: db/db mice; experiment: Retinal Brn3a immunofluorescence (RGC counting); type: in vivo; conditions: gavage 20 mg/kg/day, 18 weeks, vs db/db+water
Method: as §1, §2, §3
(3) After the gavage, retinal Brn3a immunofluorescence experiment was conducted.
After the mice were euthanized, periocular tissue of the mice was cut open, their eyeball of the mice was cut out and placed in a 5 mL centrifuge tube containing 4% PFA to allow fixation for 24 h, and the retinas were separated and cut into 4 petal shapes. The retinas were washed with PBS, permeabilized for 45 min, and blocked for 2 h. After removing a blocking solution, a Brn3a antibody was diluted (1:100) with PBS buffer containing 1% BSA, incubated overnight at 4° C., and then washed with the PBS. […] LSM 880 confocal laser microscope was used to take a full retinal mosaic, and then fluorescent images of the inner, middle, and outer 3 areas were intercepted on the 4 petals of the retina, that is, 12 areas of one retina were intercepted to allow fluorescence counting statistics. […]

[7] = system: db/db mice; conditions: previous studies, cited from earlier work
[8] = system: neonatal mice, hypoxia-induced retinopathy model; experiment: OIR experiment, hypoxia-induced retinopathy model (isolectin staining, area of retinal angiogenesis); type: in vivo; conditions: intraperitoneal 7 mg/kg/day, 1 time a day from day 12 after birth, 5 days, vs OIR+Saline
Method: In this example, the effect of L-ABH was verified in a hypoxia-induced model. The hypoxia-induced retinopathy model could be used as a model of ROP and a late-stage model of DR. OIR experiment: neonatal mice on the 7th day after birth and mother mice were randomly divided into 3 groups. Two groups of the neonatal mice and the mother mice were placed in an OIR oxygen chamber. The neonatal mice in group 1 were intraperitoneally injected with L-ABH (7 mg/kg/day) 1 time a day from the 12th day after birth for 5 consecutive days, recorded as OIR+L-ABH (ip), with a total of 5 mice. While the neonatal mice in group 2 were intraperitoneally injected with an equal amount of saline every day from the 12th day, recorded as OIR+Saline, with a total of 5 mice. After 5 day of hyperoxia, hypoxia-induced models were established in the group 1 and the group 2. The mice in group 3 were fed normally and intraperitoneally injected with an equal volume of saline every day, recorded as WT, with a total of 5 mice. After 5 day of hyperoxia, the neonatal and the mother mice were taken out from the oxygen chamber. The neonatal and the mother mice in the 3 groups were raised normally for 5 days, then the neonatal mice were sacrificed, subjected to stretched preparation and stained with isolectin, and then analyzed for the area of retinal angiogenesis. […]

SMILES: N[C@@H](CC(=O)NO)C(=O)O [L-ABH, L-aspartic acid β-hydroxamate]
- degeneration of nerve fiber layer and medial nasal retina (RNFL thickness, total retinal thickness by OCT) [1]: protect the degeneration of a nerve fiber layer and a medial nasal retina
- functions of bipolar cells and amacrine cells in the retina (a-, b-wave, oscillatory potential, N1-P1 amplitudes) [2]: significantly improve the functions of bipolar cells and amacrine cells
- nausea, vomiting, diarrhea, lactic acidosis ([3]; long-term use): does not cause nausea, vomiting, diarrhea, or lactic acidosis
- irritating effect on gastrointestinal tract [3]: no irritating effect on gastrointestinal tract
- microvascular lesions (ratio of endothelial cells to pericytes, amount of acellular capillaries) [4]: significantly reduce the microvascular lesions
- hepatotoxicity and nephrotoxicity [5]: not hepatotoxic or nephrotoxic; also recorded: without hepatotoxicity and nephrotoxicity
- RGCs (Brn3a fluorescence counting) in inner, middle and outer retina [6]: significantly protect the RGCs in the middle and outer retina
- random blood glucose ([7]; animal model of type II diabetes): reduce random blood glucose
- oral glucose tolerance test (OGTT) [7]: significantly improve oral glucose tolerance test (OGTT)
- sensitivity of insulin tolerance test (ITT) [7]: increase sensitivity of insulin tolerance test (ITT)
- hypoxia-induced retinal angiogenesis (neovascular area, avascular area) [8]: significantly reduce the hypoxia-induced retinal angiogenesis
